Test results published in article PMC6982817, “Substituted N-(Pyrazin-2-yl)benzenesulfonamides; Synthesis, Anti-Infective Evaluation, Cytotoxicity, and In Silico Studies” (Molecules, 2019).
≈ marks a conversion by molar mass, not a printed value. Where two headings read alike, the source gives them in different places. Blank lines part the entries; values can stand above or below the compound they belong to.

Tests used:
[1] = test system: Mycobacterium tuberculosis H37Rv CNCTC My 331/88 (ATCC 27294); conditions: cited from earlier work; for Antimycobacterial Activity MIC against Mtb H37Rv, Amide: previously published pyrazinecarboxamides, methodology not identical; for Antimycobacterial Activity MIC against Mtb H37Rv, Retro-amide: previously published N-pyrazinylbenzamides
[2] = test system: Mycobacterium smegmatis DSM 43465 (ATCC 607); test: Antimycobacterial microdilution assay, M. smegmatis; type: cell-based; conditions: Middlebrook 7H9 broth, resazurin after 48 hours; for MIC: Mycolicibacterium smegmatis, 48 h, read-out: Antimycobacterial Activity MIC M. smeg
[3] = test system: Staphylococcus epidermidis 112-2016; test: Antibacterial microdilution broth, S. epidermidis; type: cell-based; conditions: Staphylococcus epidermidis, 1122016, 48 h; read-out: MIC against Staphylococcus epidermidis
[4] = test system: Staphylococcus aureus CCM 4223 (ATCC 29213); test: Antibacterial microdilution broth, S. aureus; type: cell-based; conditions: 48 h, read-out: MIC against Staphylococcus aureus
[5] = test system: Enterococcus faecalis CCM 4224 (ATCC 29212); test: Antibacterial microdilution broth, E. faecalis; type: cell-based; conditions: 48 h, read-out: MIC against Enterococcus faecalis
[6] = test system: Staphylococcus aureus methicillin-resistant CCM 4750 (ATCC 43300); test: Antibacterial microdilution broth, MRSA; type: cell-based; conditions: 48 h, read-out: MIC against Staphylococcus aureus methicillin resistant
[7] = test system: Klebsiella pneumoniae 64-2016; test: Antibacterial microdilution broth, K. pneumoniae; type: cell-based; conditions: Klebsiella pneumoniae, 642016, 48 h; read-out: MIC against Klebsiella pneumonia
[8] = test system: Pseudomonas aeruginosa CCM 3955 (ATCC 27853); test: Antibacterial microdilution broth, P. aeruginosa; type: cell-based; conditions: 48 h, read-out: MIC against Pseudomonas aeruginosa
[9] = test system: Escherichia coli CCM 3954 (ATCC 25922); test: Antibacterial microdilution broth, E. coli; type: cell-based; conditions: 48 h, read-out: MIC against Escherichia coli
[10] = test system: Mycobacterium aurum DSM 43999 (ATCC 23366); test: Antimycobacterial microdilution assay, M. aurum; type: cell-based; conditions: Middlebrook 7H9 broth, resazurin after 72 hours; for MIC: Mycolicibacterium aurum, 72 h
[11] = test system: Serratia marcescens 62-2016; test: Antibacterial microdilution broth, S. marcescens; type: cell-based; conditions: Serratia marcescens, 622016, 48 h; read-out: MIC against Serratia marcescens
physchem [12] = test: physchem
[13] = test system: Mycobacterium tuberculosis H37Rv CNCTC My 331/88 (ATCC 27294); test: Antimycobacterial microplate alamar blue assay, M. tuberculosis H37Rv; type: cell-based; conditions: for MIC: Mycobacterium tuberculosis
physchem [14] = test: physchem; remark: listed apart in the source
in vitro = conditions: human
[15] = test system: M. avium ssp. avium CNCTC My 80/72 (ATCC 15769); test: Antimycobacterial microplate alamar blue assay, M. avium; type: cell-based, Mycobacterium avium; conditions: for MIC: Mycobacterium avium
[16] = test system: M. kansasii CNCTC My 235/80 (ATCC 12478); test: Antimycobacterial microplate alamar blue assay, M. kansasii; type: cell-based, Mycobacterium kansasii; conditions: Mycobacterium kansasii
HepG2 cells = conditions: cited from earlier work
[17] = test system: four Gram-positive and four Gram-negative bacterial strains; test: Antibacterial screening, microdilution broth, panel of eight strains; type: cell-based; conditions: concentration scale 500–0.97 μM
[18] = test system: C. krusei CCM 8271 (ATCC 6258); test: Antifungal microdilution broth, C. krusei; type: cell-based, Candida krusei; conditions: Pichia kudriavzevii, 48 h; read-out: MIC against C. krusei
[19] = test system: Lichtheimia corymbifera CCM 8077; test: Antifungal microdilution broth, L. corymbifera; type: cell-based; conditions: CCM8077, 48 h, read-out: MIC against Lichtheimia corymbifera
[20] = test system: Aspergillus flavus CCM 8363; test: Antifungal microdilution broth, A. flavus; type: cell-based; conditions: CCM8363, 48 h, read-out: MIC against Aspergillus flavus
[21] = test system: Trichophyton interdigitale CCM 8377 (ATCC 9533); test: Antifungal microdilution broth, T. interdigitale; type: cell-based; conditions: 72 h, read-out: MIC against Trichophyton interdigitale
[22] = test system: C. tropicalis CCM 8264 (ATCC 750); test: Antifungal microdilution broth, C. tropicalis; type: cell-based; conditions: Candida tropicalis, 48 h; read-out: MIC against C. tropicalis
[23] = test system: C. parapsilosis CCM 8260 (ATCC 22019); test: Antifungal microdilution broth, C. parapsilosis; type: cell-based, Candida parapsilosis; conditions: Lodderomyces parapsilosis, 48 h; read-out: MIC against C. parapsilosis
[24] = test system: Aspergillus fumigatus ATCC 204305; test: Antifungal microdilution broth, A. fumigatus; type: cell-based; conditions: ATCC204305, 48 h, read-out: MIC against Aspergillus fumigatus
[25] = test system: Candida albicans CCM 8320 (ATCC 24433); test: Antifungal microdilution broth, C. albicans; type: cell-based; conditions: 48 h, read-out: MIC against Candida albicans
[26] = pH 6.6, Middlebrook 7H9 broth pH 6.6, alamar blue, read-out: Antimycobacterial Activity MIC Mtb H37Rv
[27] = ATCC15769, pH 6.6, Middlebrook 7H9 broth pH 6.6, alamar blue, read-out: Antimycobacterial Activity MIC M. avium
[28] = ATCC12478, pH 6.6, Middlebrook 7H9 broth pH 6.6, alamar blue, read-out: Antimycobacterial Activity MIC M. kansasii
[29] = Middlebrook 7H9 broth pH 6.6, alamar blue
[30] = ATCC12478, molar value printed beside μg/mL in text, read-out: MIC M. kansasii

Compound: O=C(Nc1ccccc1)c1cncc(Cl)n1 [Amide R^1 6-Cl R^2 H]
Antimycobacterial Activity MIC against Mtb H37Rv, Amide [1]: >100 µg/mL

Compound: COc1ccc(NC(=O)c2cnccn2)cc1 [Amide R^1 H R^2 4-OCH3]
Antimycobacterial Activity MIC against Mtb H37Rv, Amide [1]: 25 µg/mL

Compound: O=C(Nc1ccccc1)c1cnccn1 [Amide R^1 H R^2 H]
Antimycobacterial Activity MIC against Mtb H37Rv, Amide [1]: 100 µg/mL

Compound: O=C(O)c1cn(C2CC2)c2cc(N3CCNCC3)c(F)cc2c1=O [CPX]
Antimycobacterial Activity MIC M. smeg [2]: 0.125 µg/mL
MIC [2]: 0.0625 to 0.125 µg/mL (≈ 0.189 to 0.377 µM)
MIC [3]: > 1.02 µg/mL
MIC [4]: 0.128 to 0.256 µg/mL (≈ 0.386 to 0.773 µM)
MIC [5]: 0.512 µg/mL (≈ 1.55 µM)
MIC [6]: 0.128 µg/mL (≈ 0.386 µM)
MIC [7]: > 1.02 µg/mL
MIC [8]: 0.128 µg/mL (≈ 0.386 µM)
MIC [9]: 0.008 µg/mL (≈ 0.0241 µM)
Antimycobacterial Activity MIC M. aurum [10]: 8 ng/mL
MIC [10]: 0.00781 to 0.0156 µg/mL (≈ 0.0236 to 0.0472 µM)
MIC [11]: 0.256 µg/mL (≈ 0.773 µM)

Compound: COc1ccc(S(=O)(=O)Nc2cncc(Cl)n2)cc1 [Compound 6b, N-(6-chloropyrazin-2-yl)-4-methoxybenzenesulfonamide]
MIC [2]: ≥ 500 µg/mL
pKa (physchem [12]): 6.95
MIC [13, 26]: > 100 µg/mL
pKa (physchem [14]): 7.21
MIC [10]: ≥ 500 µg/mL
IC50 at 24 h (in vitro): > 1000 µM
MIC [15, 27]: > 100 µg/mL
MIC [16, 28]: 100 µg/mL

Compound: Cc1cc(C)c(S(=O)(=O)Nc2cncc(Cl)n2)c(C)c1 [Compound 9b, N-(6-chloropyrazin-2-yl)-2,4,6-trimethylbenzenesulfonamide]
MIC [2]: ≥ 500 µg/mL
pKa (physchem [12]): 6.32
melting point: 179.7 to 180.2 °C
MIC [13, 26]: > 100 µg/mL
pKa (physchem [14]): 6.38
MIC [10]: ≥ 500 µg/mL
IC50 at 24 h (in vitro): 180 µM
MIC [15, 27]: > 100 µg/mL
MIC [16, 28]: 50 µg/mL

Compound: O=S(=O)(Nc1cncc(Cl)n1)c1ccc2ccccc2c1 [Compound 13b, N-(6-chloropyrazin-2-yl)naphthalene-2-sulfonamide]
MIC [2]: 125 µg/mL (≈ 391 µM)
pKa (physchem [12]): 5.63
melting point: 204.6 to 207 °C
MIC [13, 26]: 50 µg/mL
pKa (physchem [14]): 5.75
MIC [10]: 250 µg/mL (≈ 782 µM)
IC50 at 24 h (in vitro): > 1000 µM
MIC [15, 27]: > 100 µg/mL
MIC [16, 28]: 50 µg/mL

Compound: NNC(=O)c1ccncc1 [INH, reference compound]
IC50 (HepG2 cells): 79 mM
Antimycobacterial Activity MIC Mtb H37Rv [13, 29]: 0.2 µg/mL
MIC [13, 26]: 0.1 to 0.2 µg/mL
Antimycobacterial Activity MIC M. avium [15, 29]: 12.5 µg/mL
MIC [15, 27]: 6.25 to 12.5 µg/mL
MIC [16, 30]: 182 µM

Compound: NC(=O)c1cnccn1 [PZA, reference compound]
MIC [2]: ≥ 500 µg/mL
IC50 (HepG2 cells): > 10 mM
MIC [13, 26]: > 100 µg/mL
MIC [10]: ≥ 500 µg/mL
MIC [15, 27]: > 100 µg/mL
MIC [16, 28]: > 100 µg/mL

Compound: O=C(Nc1cncc(Cl)n1)c1ccccc1 [Retro-amide R^1 6-Cl R^2 H]
Antimycobacterial Activity MIC against Mtb H37Rv, Retro-amide [1]: 25 µg/mL

Compound: COc1ccc(C(=O)Nc2cnccn2)cc1 [Retro-amide R^1 H R^2 4-OCH3]
Antimycobacterial Activity MIC against Mtb H37Rv, Retro-amide [1]: >100 µg/mL

Compound: O=C(Nc1cnccn1)c1ccccc1 [Retro-amide R^1 H R^2 H]
Antimycobacterial Activity MIC against Mtb H37Rv, Retro-amide [1]: >100 µg/mL

Compound: Cc1cc(NS(=O)(=O)c2ccc(N)cc2)no1 [Sulfamethoxazole, 4-amino-N-(5-methylisoxazol-3-yl)benzenesulfonamide, reference compound]
MIC [2]: 250 µg/mL (≈ 987 µM)
MIC [13, 26]: 3.13 µg/mL
MIC ([13]; read-out: MIC Mtb H37Rv): 12 µM
MIC [10]: ≥ 500 µg/mL
antibacterial activity MIC [17]: not active against any of the tested bacterial strains
MIC ([15]; ATCC15769, molar value printed beside μg/mL in text, read-out: MIC M. avium): 49 µM
MIC [15, 27]: 12.5 µg/mL
MIC [16, 30]: 12 µM
MIC [16, 28]: 3.13 µg/mL

MIC [18]: 1 µg/mL (≈ 1.08 µM)
MIC [19]: 0.5 µg/mL (≈ 0.541 µM)
MIC [20]: 8 µg/mL (≈ 8.66 µM)
MIC [21]: 2 µg/mL (≈ 2.16 µM)
MIC [22]: 1 µg/mL (≈ 1.08 µM)
MIC [23]: 0.5 µg/mL (≈ 0.541 µM)
Compound: C[C@@H]1[C@H](O)[C@@H](C)/C=C/C=C/C=C/C=C/C=C/C=C/C=C/[C@H](O[C@@H]2O[C@H](C)[C@@H](O)[C@H](N)[C@@H]2O)C[C@@H]2O[C@](O)(C[C@@H](O)C[C@@H](O)[C@H](O)CC[C@@H](O)C[C@@H](O)CC(=O)O[C@H]1C)C[C@H](O)[C@H]2C(=O)O [amphotericin B]

MIC [3]: > 8 µg/mL
MIC [4]: 1 µg/mL (≈ 2.09 µM)
MIC [5]: 8 µg/mL (≈ 16.8 µM)
MIC [6]: 16 to 32 µg/mL (≈ 33.5 to 67 µM)
MIC [7]: > 8 µg/mL
MIC [8]: 0.5 µg/mL (≈ 1.05 µM)
MIC [9]: 1 to 2 µg/mL (≈ 2.09 to 4.19 µM)
MIC [11]: 2 µg/mL (≈ 4.19 µM)
Compound: CNC(C)C1CCC(N)C(OC2C(N)CC(N)C(OC3OCC(C)(O)C(NC)C3O)C2O)O1 (stereo not drawn) [gentamicin]

MIC [18]: 0.5 µg/mL (≈ 1.43 µM)
MIC [19]: > 16 µg/mL
MIC [20]: > 16 µg/mL
MIC [24]: 1 µg/mL (≈ 2.86 µM)
MIC [21]: > 16 µg/mL
MIC [22]: > 16 µg/mL
MIC [25]: > 16 µg/mL
MIC [23]: 8 µg/mL (≈ 22.9 µM)
Compound: C[C@@H](c1ncncc1F)[C@](O)(Cn1cncn1)c1ccc(F)cc1F [voriconazole]
